Assay results taken from PMC5745808 (Biochemistry, 2016).
Read-outs that look alike come from different tables or passages of the source. Peptide text beside a SMILES is read from it. * marks the point of attachment. Cbz = O=C(OCc1ccccc1)*

Key:
Mtb20SOG [1] = target: T1, Mtb20SOG (Mycobacterium tuberculosis, UniProt P9WHT9); assay: biochemical
c-20S β5c = c-20S β5c (Homo sapiens, UniProt P20618+P28074); details: ref [20], cited from earlier work
i-20S β5i = i-20S β5i (Homo sapiens, UniProt P20618+P28062); details: ref [20], cited from earlier work
M. tuberculosis = details: under nitrosative stress; ref [20]; cited from earlier work
Mtb20SOG [2] = target: T1, Mtb20SOG; details: ref [20], cited from earlier work

T1 sequence (P9WHT9 58-291): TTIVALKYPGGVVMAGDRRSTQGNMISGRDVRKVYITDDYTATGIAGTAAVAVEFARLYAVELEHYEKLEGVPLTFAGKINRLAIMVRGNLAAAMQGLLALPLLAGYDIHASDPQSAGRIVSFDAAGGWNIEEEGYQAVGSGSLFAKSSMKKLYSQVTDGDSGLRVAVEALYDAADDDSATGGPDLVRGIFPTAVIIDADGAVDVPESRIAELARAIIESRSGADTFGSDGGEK
T1 sequence (P9WHU1 9-248 partner): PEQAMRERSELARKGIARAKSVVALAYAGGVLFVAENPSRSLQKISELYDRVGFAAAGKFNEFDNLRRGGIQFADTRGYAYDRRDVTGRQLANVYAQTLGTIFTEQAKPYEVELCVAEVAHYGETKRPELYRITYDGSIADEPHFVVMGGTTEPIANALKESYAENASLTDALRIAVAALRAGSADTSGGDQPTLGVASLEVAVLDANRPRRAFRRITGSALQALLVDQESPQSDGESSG

Row | SMILES | IC50 (Mtb20SOG [1]) [µM] | SIapp IC50β5c/IC50Mtb20SOG (c-20S β5c; apparent selectivity index) | IC50 (c-20S β5c; read-out: IC50 c-20S β5c (LLVY), suc-LLVY-AMC) [µM] | affinity for Mtb 20S stronger than for human c-20S (c-20S β5c) [fold] | SIapp IC50β5i/IC50Mtb20SOG (i-20S β5i; apparent selectivity index) | IC50 (i-20S β5i; read-out: IC50 i-20S β5i (ANW), Ac-ANW-AMC) [µM] | affinity for Mtb 20S stronger than for human i-20S (i-20S β5i) [fold] | bactericidal activity against nonreplicating bacteria (M. tuberculosis) | more potent against Mtb20SOG than DPLG-4 (Mtb20SOG [2]; DPLG-4 has a 4-isopropyl phenyl P1 group) [fold] | more potent against Mtb20SOG than ML9 (Mtb20SOG [2]; ML9 has a 2,4-difluorobenzyl P1 group) [fold] | IC50 (Mtb20SOG [2]; read-out: IC50 Mtb20SOG (LLVY), suc-LLVY-AMC) [µM]
1 | CC(C)C[C@@H](C=O)NC(=O)[C@H](CC(C)C)NC(=O)[C@H](CC(C)C)NC(=O)OCc1ccccc1 [MG-132] (Cbz-Leu-Leu-Leu-aldehyde) | 1.71 ± 0.079 |  |  |  |  |  |  |  |  |  | 
2 | CCN(CC)C(=O)C[C@H](NC(=O)CCc1ccccc1)C(=O)N[C@@H](Cc1ccc(F)cc1)C(=O)NCc1cccc2ccccc12 [DPLG-2] |  | 4667 | 70 | 4667 | 3647 | 54.7 | 3647 | bactericidal activity | 51 | 4 | 0.015
